This note sets out measurements from patent publication US20260193271A1, “PAN-KRAS INHIBITOR COMPOUND” (ADLAI NORTYE BIOPHARMA CO., LTD., priority 2022, published 2026).

The structures appear in SMILES notation.

One assay deals with SW480 (G12V). Description: In vitro cell proliferation inhibition test (CellTiter-Glo), SW480. In kind it is cell-based. Particulars: Homo sapiens, SW480 colon cell line, KRAS (p.G12V), 72 h co-incubation. The method, boiled down: (§1)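 Cells were seeded at 1000-5000/well by doubling time and cultured overnight at 37 °C, 5% CO2. They were then exposed for 72 h to 10-point, 3-fold compound dilutions (final top 10 μM), and viability was read by CellTiter-Glo luminescence. IC50 came from normalized signals fitted by four-parameter regression.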
(In general: In ATP-based viability assays light output follows the ATP content of the culture.)

The next assay concerns AsPC-1 (G12D). Description: In vitro cell proliferation inhibition test (CellTiter-Glo), AsPC-1. In kind it is cell-based. As to conditions: Homo sapiens, ASPC1, AsPC-1 pancreas cell line, KRAS (p.G12D), 72 h co-incubation. The method, boiled down: as §1

Broadly, the IC50 is the point on the concentration scale where inhibition reaches its midpoint. Turning to `CCn1c(-c2cc(-c3ncc(CN4CCS(=O)(=O)CC4)cn3)cnc2[C@H](C)OC)c2c3cc(ccc31)-c1csc(n1)C[C@H](NC(=O)[C@H]1C[C@@H]1C)C(=O)N1CCC[C@H](N1)C(=O)OCC(C)(C)C2` (atropisomer, axis not shown) [Compound 51, (1S,2S)-N-((6^3S,4S,Z)-1^2-(5-(5-((1,1-dioxidothiomorpholino)methyl)pyrimidin-2-yl)-2-((S)-1-methoxyethyl)pyridin-3-yl)-1^1-ethyl-10,10-dimethyl-5,7-dioxo-6^1,6^2,6^3,6^4,6^5,6^6-hexahydro-1^1H-8-oxa-2(4,2)-thiazola-1(5,3)-indola-6(1,3)-pyridazinacycloundecaphane-4-yl)-2-methylcyclopropane-1-carboxamide], the IC50 in the assay with SW480 (G12V) was determined as 1.2 nM; in the assay on AsPC-1 (G12D) it was 0.9 nM.

`CCn1c(-c2cc(-c3cc4c(n(C)c3=O)CCN(C)C4)cnc2[C@H](C)OC)c2c3cc(ccc31)-c1csc(n1)C[C@H](NC(=O)[C@H]1C[C@@H]1C)C(=O)N1CCC[C@H](N1)C(=O)OCC(C)(C)C2` (atropisomer, axis not shown) [Compound 52, (1S,2S)-N-((6^3S,4S,Z)-1^2-(5-(1,6-dimethyl-2-oxo-1,2,5,6,7,8-hexahydro-1,6-naphthyridin-3-yl)-2-((S)-1-methoxyethyl)pyridin-3-yl)-1^1-ethyl-10,10-dimethyl-5,7-dioxo-6^1,6^2,6^3,6^4,6^5,6^6-hexahydro-1^1H-8-oxa-2(4,2)-thiazola-1(5,3)-indola-6(1,3)-pyridazinacycloundecaphane-4-yl)-2-methylcyclopropane-1-carboxamide]: the 50% inhibitory concentration (IC50) with SW480 (G12V) came to 1.2 nM; in the assay with AsPC-1 (G12D), 0.21 nM.

Turning to `CCn1c(-c2cc(-c3cnc(CN4CCN(C)CC4)nc3)cnc2[C@H](C)OC)c2c3cc(ccc31)-c1csc(n1)C[C@H](NC(=O)[C@H]1C[C@@H]1C)C(=O)N1CCC[C@H](N1)C(=O)OCC(C)(C)C2` (atropisomer, axis not shown) [Compound 53, (1S,2S)-N-((6^3S,4S,Z)-1^1-ethyl-1^2-(2-((S)-1-methoxyethyl)-5-(2-((4-methylpiperazin-1-yl)methyl)pyrimidin-5-yl)pyridin-3-yl)-10,10-dimethyl-5,7-dioxo-6^1,6^2,6^3,6^4,6^5,6^6-hexahydro-1^1H-8-oxa-2(4,2)-thiazola-1(5,3)-indola-6(1,3)-pyridazinacycloundecaphane-4-yl)-2-methylcyclopropane-1-carboxamide], the values for the half-inhibitory concentration (IC50) in the assay with SW480 (G12V) and in the assay with AsPC-1 (G12D) were 1.7 nM and 4.3 nM, respectively.

Consider `CCn1c(-c2cc(-c3cnc(N4CCN(C)CC4)nc3)cnc2[C@H](C)OC)c2c3cc(ccc31)-c1csc(n1)C[C@H](NC(=O)[C@H]1C[C@@H]1C)C(=O)N1CCC[C@H](N1)C(=O)OCC(C)(C)C2` (atropisomer, axis not shown) [Compound 54, (1S,2S)-N-((6^3S,4S,Z)-1^1-ethyl-1^2-(2-((S)-1-methoxyethyl)-5-(2-(4-methylpiperazin-1-yl)pyrimidin-5-yl)pyridin-3-yl)-10,10-dimethyl-5,7-dioxo-6^1,6^2,6^3,6^4,6^5,6^6-hexahydro-1^1H-8-oxa-2(4,2)-thiazola-1(5,3)-indola-6(1,3)-pyridazinacycloundecaphane-4-yl)-2-methylcyclopropane-1-carboxamide], for which the values for the IC50 in the assay on SW480 (G12V) and in the assay on AsPC-1 (G12D) were 5.7 nM and 2.2 nM, respectively.

On to `CCn1c(-c2cc(-c3cnc(CN4CCCCC4)nc3)cnc2[C@H](C)OC)c2c3cc(ccc31)-c1csc(n1)C[C@H](NC(=O)[C@H]1C[C@@H]1C)C(=O)N1CCC[C@H](N1)C(=O)OCC(C)(C)C2` (atropisomer, axis not shown) [Compound 55, (1S,2S)-N-((6^3S,4S,Z)-1^1-ethyl-1^2-(2-((S)-1-methoxyethyl)-5-(2-(piperidin-1-ylmethyl)pyrimidin-5-yl)pyridin-3-yl)-10,10-dimethyl-5,7-dioxo-6^1,6^2,6^3,6^4,6^5,6^6-hexahydro-1^1H-8-oxa-2(4,2)-thiazola-1(5,3)-indola-6(1,3)-pyridazinacycloundecaphane-4-yl)-2-methylcyclopropane-1-carboxamide], for which the IC50 with SW480 (G12V) stood at 15 nM; with AsPC-1 (G12D) it was 6.8 nM.

Take `CCn1c(-c2cc(-c3cnc(N4CCOCC4)nc3)cnc2[C@H](C)OC)c2c3cc(ccc31)-c1csc(n1)C[C@H](NC(=O)[C@H]1C[C@@H]1C)C(=O)N1CCC[C@H](N1)C(=O)OCC(C)(C)C2` (atropisomer, axis not shown) [Compound 56, (1S,2S)-N-((6^3S,4S,Z)-1^1-ethyl-1^2-(2-((S)-1-methoxyethyl)-5-(2-morpholinopyrimidin-5-yl)pyridin-3-yl)-10,10-dimethyl-5,7-dioxo-6^1,6^2,6^3,6^4,6^5,6^6-hexahydro-1^1H-8-oxa-2(4,2)-thiazola-1(5,3)-indola-6(1,3)-pyridazinacycloundecaphane-4-yl)-2-methylcyclopropane-1-carboxamide]: the values for the IC50 in the assay with SW480 (G12V) and with AsPC-1 (G12D) were 21 nM and 16 nM, respectively.

As to `CCn1c(-c2cc(-c3cnc(OC)nc3)cnc2[C@H](C)OC)c2c3cc(ccc31)-c1csc(n1)C[C@H](NC(=O)[C@H]1C[C@@H]1C)C(=O)N1CCC[C@H](N1)C(=O)OCC(C)(C)C2` (atropisomer, axis not shown) [Compound 57, (1S,2S)-N-((6^3S,4S,Z)-1^1-ethyl-1^2-(2-((S)-1-methoxyethyl)-5-(2-methoxypyrimidin-5-yl)pyridin-3-yl)-10,10-dimethyl-5,7-dioxo-6^1,6^2,6^3,6^4,6^5,6^6-hexahydro-1H-8-oxa-2(4,2)-thiazola-1(5,3)-indola-6(1,3)-pyridazinacycloundecaphane-4-yl)-2-methylcyclopropane-1-carboxamide], the IC50 in the assay on SW480 (G12V) amounted to 4.6 nM; in the assay on AsPC-1 (G12D), 5.6 nM.

Regarding `CCn1c(-c2cc(-c3cnc(CN4CCN(CCOC)CC4)nc3)cnc2[C@H](C)OC)c2c3cc(ccc31)-c1csc(n1)C[C@H](NC(=O)[C@H]1C[C@@H]1C)C(=O)N1CCC[C@H](N1)C(=O)OCC(C)(C)C2` (atropisomer, axis not shown) [Compound 58, (1S,2S)-N-((6^3S,4S,Z)-1^1-ethyl-1^2-(2-((S)-1-methoxyethyl)-5-(2-((4-(2-methoxyethyl)piperazin-1-yl)methyl)pyrimidin-5-yl)pyridin-3-yl)-10,10-dimethyl-5,7-dioxo-6^1,6^2,6^3,6^4,6^5,6^6-hexahydro-1^1H-8-oxa-2(4,2)-thiazola-1(5,3)-indola-6(1,3)-pyridazinacycloundecaphane-4-yl)-2-methylcyclopropane-1-carboximide], the IC50 was 30 nM in the assay with SW480 (G12V) and 68 nM in the assay with AsPC-1 (G12D).

Take `CCn1c(-c2cc(-c3cnc(N(C)C)nc3)cnc2[C@H](C)OC)c2c3cc(ccc31)-c1csc(n1)C[C@H](NC(=O)[C@H]1C[C@@H]1C)C(=O)N1CCC[C@H](N1)C(=O)OCC(C)(C)C2` (atropisomer, axis not shown) [Compound 59, (1S,2S)-N-((6^3S,4S,Z)-1^2-(5-(2-(dimethylamino)pyrimidin-5-yl)-2-((S)-1-methoxyethyl)pyridin-3-yl)-1^1-ethyl-10,10-dimethyl-5,7-dioxo-6^1,6^2,6^3,6^4,6^5,6^6-hexahydro-1^1H-8-oxa-2(4,2)-thiazola-1(5,3)-indola-6(1,3)-pyridazinacycloundecaphane-4-yl)-2-methylcyclopropane-1-carboxamide]: the results for the IC50 in the assay with SW480 (G12V) and in the assay on AsPC-1 (G12D) were 6.2 nM and 3 nM, respectively.

In the case of `CCn1c(-c2cc(-c3cnc(OC4CCN(C)CC4)nc3)cnc2[C@H](C)OC)c2c3cc(ccc31)-c1csc(n1)C[C@H](NC(=O)[C@H]1C[C@@H]1C)C(=O)N1CCC[C@H](N1)C(=O)OCC(C)(C)C2` (atropisomer, axis not shown) [Compound 60, (1S,2S)-N-((6^3S,4S,Z)-1^1-ethyl-1^2-(2-((S)-1-methoxyethyl)-5-(2-((1-methylpiperidin-4-yl)oxy)pyrimidin-5-yl)pyridin-3-yl)-10,10-dimethyl-5,7-dioxo-6^1,6^2,6^3,6^4,6^5,6^6-hexahydro-1^1H-8-oxa-2(4,2)-thiazola-1(5,3)-indola-6(1,3)-pyridazinacycloundecaphane-4-yl)-2-methylcyclopropane-1-carboxamide], the IC50 with SW480 (G12V) worked out at 12 nM; in the assay on AsPC-1 (G12D), 1.6 nM.

In the case of `CCn1c(-c2cc(-c3cnc(CN4CCN5CCOC[C@@H]5C4)nc3)cnc2[C@H](C)OC)c2c3cc(ccc31)-c1csc(n1)C[C@H](NC(=O)[C@H]1C[C@@H]1C)C(=O)N1CCC[C@H](N1)C(=O)OCC(C)(C)C2` (atropisomer, axis not shown) [Compound 61, (1S,2S)-N-((6^3S,4S,Z)-1^1-ethyl-1^2-(5-(2-(((S)-hexahydropyrazino[2,1-c][1,4]oxazin-8(1H)-yl)methyl)pyrimidin-5-yl)-2-((S)-1-methoxyethyl)pyridin-3-yl)-10,10-dimethyl-5,7-dioxo-6^1,6^2,6^3,6^4,6^5,6^6-hexahydro-1^1H-8-oxa-2(4,2)-thiazola-1(5,3)-indola-6(1,3)-pyridazinacycloundecaphane-4-yl)-2-methylcyclopropane-1-carboxamide], the IC50 in the assay on SW480 (G12V) is 20 nM; in the assay on AsPC-1 (G12D), 19 nM.

As for `CCn1c(-c2cc(-c3cnn(C4CCN(C)CC4)c3)cnc2[C@H](C)OC)c2c3cc(ccc31)-c1csc(n1)C[C@H](NC(=O)[C@H]1C[C@@H]1C)C(=O)N1CCC[C@H](N1)C(=O)OCC(C)(C)C2` (atropisomer, axis not shown) [Compound 63, (1S,2S)-N-((6^3S,4S,Z)-1^1-ethyl-1^2-(2-((S)-1-methoxyethyl)-5-(1-(1-methylpiperidin-4-yl)-1H-pyrazol-4-yl)pyridin-3-yl)-10,10-dimethyl-5,7-dioxo-6^1,6^2,6^3,6^4,6^5,6^6-hexahydro-1^1H-8-oxa-2(4,2)-thiazola-1(5,3)-indola-6(1,3)-pyridazinacycloundecaphane-4-yl)-2-methylcyclopropane-1-carboxamide], the values for the IC50 in the assay with SW480 (G12V) and with AsPC-1 (G12D) were 71 nM and 48 nM, respectively.
